In patent US8791148B2, “Substituted benzimidazolone derivatives, medicaments comprising them and their use” (AbbVie Deutschland GmbH & Co. KG, priority 2006, dated 2014):

Each compound was assayed against T1, human vasopressin V1b receptor (Homo sapiens, UniProt P47901) (assay: Vasopressin V1b receptor binding assay). Conditions: membranes from CHO-K1 cells with stably expressed human V1b receptors; displacement of 1.5 nM 3H-AVP; read-out: V1b receptor affinity (affinity constant Ki).
T1 construct: expressed in transfected cells; host or cells: CHO-K1 (cell line hV1b-3H2_CHO), membrane preparation
T1 sequence (P47901 1-424): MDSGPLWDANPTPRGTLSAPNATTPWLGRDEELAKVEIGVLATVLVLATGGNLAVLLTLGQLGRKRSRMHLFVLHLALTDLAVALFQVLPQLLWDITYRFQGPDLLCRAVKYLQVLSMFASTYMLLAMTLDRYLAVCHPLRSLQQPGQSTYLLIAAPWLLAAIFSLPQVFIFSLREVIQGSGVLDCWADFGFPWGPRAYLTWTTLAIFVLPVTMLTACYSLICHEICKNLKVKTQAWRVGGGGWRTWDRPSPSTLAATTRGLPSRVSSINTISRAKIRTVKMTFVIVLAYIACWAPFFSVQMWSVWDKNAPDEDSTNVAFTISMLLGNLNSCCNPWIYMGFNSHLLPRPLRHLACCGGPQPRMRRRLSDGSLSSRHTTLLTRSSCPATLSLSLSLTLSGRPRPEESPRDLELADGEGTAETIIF
Summary of the method: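 Membranes expressing human V1b receptor were incubated with radioligand and test compound (2% DMSO final) in 50 mM Tris, 10 mM MgCl2, 0.1% BSA, pH 7.4, for 60 min at room temperature, in triplicate. 1 uM AVP defined nonspecific binding. Bound ligand was separated by filtration and counted by scintillation; Ki came from nonlinear regression.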

| Ki [nM] | Structure (SMILES) |
| --- | --- |
| < 100 | COc1ccc(S(=O)(=O)n2c(=O)n(C(C(=O)N3CCN(c4ccncc4)CC3)c3ccccc3)c3cc(Cl)ccc32)cc1 (centres unmarked) [Example 58, 5-Chloro-1-(4-methoxybenzenesulfonyl)-3-[2-oxo-1-phenyl-2-(4-pyridin-4-ylpiperazin-1-yl)ethyl]-1,3-dihydrobenzimidazol-2-one] |
| 500 to 10000 | COc1ccc(S(=O)(=O)n2c(=O)n(C(C(=O)N3CCN(c4ccncc4)CC3)c3ccccc3)c3cc(Cl)c(Cl)cc32)c(OC)c1 (centres unmarked) [Example 59, 5,6-Dichloro-1-(2,4-dimethoxybenzenesulfonyl)-3-[2-oxo-1-phenyl-2-(4-pyridin-4-ylpiperazin-1-yl)ethyl]-1,3-dihydrobenzoimidaz] |
| 500 to 10000 | COc1ccc(S(=O)(=O)n2c(=O)n(C(C(=O)N3CCN(C4CCN(C)CC4)CC3)c3ccccc3)c3ccccc32)cc1 (centres unmarked) [Example 60, 1-(4-Methoxybenzenesulfonyl)-3-{2-[4-(1-methylpiperidin-4-yl)piperazin-1-yl]-2-oxo-1-phenyl-ethyl}-1,3-dihydrobenzimidazol-2-one] |
| 500 to 10000 | N#Cc1ccc(S(=O)(=O)n2c(=O)n(C(C(=O)N3CCN(c4ccncc4)CC3)c3ccccc3)c3cc(Cl)c(Cl)cc32)cc1 (centres unmarked) [Example 62, 4-{5,6-Dichloro-2-oxo-3-[2-oxo-1-phenyl-2-(4-pyridin-4-ylpiperazin-1-yl)-ethyl]-2,3-dihydrobenzimidazol-1-sulfonyl}benzonitrile] |
| 100 to 500 | COc1ccc(S(=O)(=O)n2c(=O)n(C(C(=O)N3CCC(N4CCN(C)CC4)CC3)c3ccccc3)c3cc(Cl)ccc32)c(OC)c1 (centres unmarked) [Example 63, 5-Chloro-1-(2,4-dimethoxybenzenesulfonyl)-3-{2-[4-(4-methylpiperazin-1-yl)piperidin-1-yl]-2-oxo-1-phenylethyl}-1,3-dihydrobenzimidazol-2-one] |
| 100 to 500 | COc1ccc(S(=O)(=O)n2c(=O)n(C(C(=O)N3CCC(N4CCN(C)CC4)CC3)c3ccccc3)c3cc(Cl)ccc32)cc1 (centres unmarked) [Example 64, 5-Chloro-1-(4-methoxybenzenesulfonyl)-3-{2-[4-(4-methylpiperazin-1-yl)piperidin-1-yl]-2-oxo-1-phenylethyl}-1,3-dihydrobenzimidazol-2-one] |
| 100 to 500 | CN1CCN(C2CCN(C(=O)C(c3ccccc3)n3c(=O)n(S(=O)(=O)c4ccc(C#N)cc4)c4ccc(Cl)cc43)CC2)CC1 (centres unmarked) [Example 65, 4-(5-Chloro-3-{2-[4-(4-methylpiperazin-1-yl)piperidin-1-yl]-2-oxo-1-phenylethyl}-2-oxo-2,3-dihydrobenzimidazole-1-sulfonyl)benzonitrile] |
| 500 to 10000 | COc1ccc(S(=O)(=O)n2c(=O)n(C(C(=O)N3CCN(c4ccncc4)CC3)c3ccccc3)c3ccc(Cl)cc32)c(OC)c1 (centres unmarked) [Example 66, 5-Chloro-3-(2,4-dimethoxybenzenesulfonyl)-1-[2-oxo-1-phenyl-2-(4-pyridin-4-ylpiperazin-1-yl)ethyl]-1,3-dihydrobenzimidazol-2-one] |
| 500 to 10000 | COc1ccc(S(=O)(=O)n2c(=O)n(C(C(=O)N3CCN(C4CCN(C)CC4)CC3)c3ccccc3)c3ccccc32)c(OC)c1 (centres unmarked) [Example 67, 1-(2,4-Dimethoxybenzenesulfonyl)-3-{2-[4-(1-methylpiperidin-4-yl)piperazin-1-yl]-2-oxo-1-phenylethyl}-1,3-dihydrobenzimidazol-2-one] |
| 100 to 500 | CN1CCC(N2CCN(C(=O)C(c3ccccc3)n3c(=O)n(S(=O)(=O)c4ccc(C#N)cc4)c4ccc(Cl)cc43)CC2)CC1 (centres unmarked) [Example 68, 4-(5-Chloro-3-{2-[4-(1-methylpiperidin-4-yl)piperazin-1-yl]-2-oxo-1-phenylethyl}-2-oxo-2,3-dihydrobenzimidazol-1-sulfonyl)benzonitrile] |
| 500 to 10000 | COc1ccc(S(=O)(=O)n2c(=O)n(C(C(=O)N3CCN(C4CCN(C)CC4)CC3)c3ccccc3)c3cc(Cl)c(Cl)cc32)c(OC)c1 (centres unmarked) [Example 69, 5,6-Dichloro-1-(2,4-dimethoxybenzenesulfonyl)-3-{2-[4-(1-methylpiperidin-4-yl)piperazin-1-yl]-2-oxo-1-phenyl-ethyl}-1,3-dihydrobenzimidazol-2-one] |
| 500 to 10000 | COc1ccc(S(=O)(=O)n2c(=O)n(C(C(=O)N3CCN(c4ccncc4)CC3)c3ccccc3)c3ccccc32)c(OC)c1 (centres unmarked) [Example 70, 1-(2,4-Dimethoxybenzenesulfonyl)-3-[2-oxo-1-phenyl-2-(4-pyridin-4-ylpiperazin-1-yl)ethyl]-1,3-dihydrobenzimidazol-2-one] |
| 500 to 10000 | CN1CCC(N2CCN(C(=O)C(c3ccccc3)n3c(=O)n(S(=O)(=O)c4cccc5cccnc45)c4cc(Cl)ccc43)CC2)CC1 (centres unmarked) [Example 71, 5-Chloro-1-{2-[4-(1-methylpiperidin-4-yl)piperazin-1-yl]-2-oxo-1-phenyl-ethyl}-3-(quinoline-8-sulfonyl)-1,3-dihydrobenzimidazol-2-one] |
| 500 to 10000 | COc1ccc(S(=O)(=O)n2c(=O)n(C(C(=O)N3CCC(N4CCN(C)CC4)CC3)c3ccccc3)c3ccccc32)c(OC)c1 (centres unmarked) [Example 72, 1-(2,4-Dimethoxybenzenesulfonyl)-3-{2-[4-(4-methylpiperazin-1-yl)piperidin-1-yl]-2-oxo-1-phenylethyl}-1,3-dihydrobenzimidazol-2-one] |
| 100 to 500 | COc1ccc(S(=O)(=O)n2c(=O)n(C(C(=O)N3CCN(c4ccncc4)CC3)c3ccccc3)c3ccc(Cl)cc32)cc1 (centres unmarked) [Example 73, 5-Chloro-3-(4-methoxybenzenesulfonyl)-1-[2-oxo-1-phenyl-2-(4-pyridin-4-ylpiperazin-1-yl)-ethyl]-1,3-dihydrobenzimidazol-2-one] |
| < 100 | CCCN1CCN(C2CCN(C(=O)C(c3ccccc3)n3c(=O)n(S(=O)(=O)c4ccc(OC)cc4)c4cc(Cl)ccc43)C2)CC1 (centres unmarked) [Example 74, 5-Chloro-3-(4-methoxybenzenesulfonyl)-1-{2-oxo-1-phenyl-2-[3-(4-propylpiperazin-1-yl)-pyrrolidin-1-yl]ethyl}-1,3-dihydrobenzimidazol-2-one] |
| 100 to 500 | CCCN1CCN(C2CCN(C(=O)C(C)n3c(=O)n(S(=O)(=O)c4ccc(OC)cc4)c4ccc(Cl)cc43)C2)CC1 (centres unmarked) [Example 75, 5-Chloro-1-(4-methoxybenzenesulfonyl)-3-{1-methyl-2-oxo-2-[3-(4-propylpiperazin-1-yl)-pyrrolidin-1-yl]ethyl}-1,3-dihydrobenzimidazol-2-one] |
| < 100 | CCCN1CCN(C2CCN(C(=O)C(c3ccccc3OC)n3c(=O)n(S(=O)(=O)c4ccc(OC)cc4)c4ccc(Cl)cc43)C2)CC1 (centres unmarked) [Example 76, 5-Chloro-1-(4-methoxybenzenesulfonyl)-3-{1-(2-methoxyphenyl)-2-oxo-2-[3-(4-propylpiperazin-1-yl)pyrrolidin-1-yl]ethyl}-1,3-dihydrobenzimidazol-2-one] |
| < 100 | CCCN1CCN(C2CCN(C(=O)C(c3ccc(OC)cc3)n3c(=O)n(S(=O)(=O)c4ccc(OC)cc4)c4ccc(Cl)cc43)C2)CC1 (centres unmarked) [Example 78, 5-Chloro-1-(4-methoxybenzenesulfonyl)-3-{1-(4-methoxyphenyl)-2-oxo-2-[3-(4-propylpiperazin-1-yl)pyrrolidin-1-yl]ethyl}-1,3-dihydrobenzimidazol-2-one] |
| < 100 | CCCN1CCN(C2CCN(C(=O)C(c3cccc(OC)c3)n3c(=O)n(S(=O)(=O)c4ccc(OC)cc4)c4ccc(Cl)cc43)C2)CC1 (centres unmarked) [Example 79, 5-Chloro-1-(4-methoxybenzenesulfonyl)-3-{1-(3-methoxyphenyl)-2-oxo-2-[3-(4-propylpiperazin-1-yl)pyrrolidin-1-yl]-ethyl}-1,3-dihydrobenzimidazol-2-one] |
